Experimental findings from patent publication US20150203471A1, “METHODS FOR IMPROVING CHICKEN PRODUCTION” (ELI LILLY AND COMPANY, priority 2012, published 2015) are described below.

Where a name gives a salt, the structure may show the parent alone. Read-outs that look alike come from different tables or passages of the source.

Assay [1] relates to male broilers. Description: Study 1: growth performance and carcass responses of male broilers, compounds in feed vs positive and negative controls. Conditions: 14 days; for change in vivo at 15 ppm, 15 µg/mL: Gallus gallus, feed or water, 336 h; for change in vivo at 15 ppm, 15 µg/mL / Ave daily live wt gain % inc. / Breast wt % inc. / Feed intake % inc. / Gain effic % inc. / Leg wt % inc. / Fat Pad wt % dec.: 15 ppm in feed ad libitum; for change in vivo at 15 ppm, 15 µg/mL / Ave daily live wt gain % inc. / Breast wt % inc. / Feed intake % inc. / Gain effic % inc. / Leg wt % inc.: percent change from negative control; for Fat Pad wt % dec.: percent decrease from negative control; for improvement versus negative control and positive control (in words): positive control = Compound 1. The assay is classed as in vivo, chicken. The text has this:
An objective of this study is to evaluate growth performance and carcass responses of male broilers by comparing non-zero dosages of the above compounds versus a positive control (Compound 1) and negative controls. Table 1 sets out the specific treatment groups:
The route of administration is oral, with the compounds mixed in feed, and provided Ad libitum. The age of the chickens of Day 1 of the study is 35 days old. Body weights are taken on the following days: • 1) Study Day 1 (pen weight) • 2) Study Day 14 (individual animal weights) • 3) Study Day 15 (individual weights on selected animals) • 4) Study Day 16 (blocks 1-5) • 5) Study Day 17 (blocks 6-10).
(§1) Following collection of final weights, the following processing data is collected (hot weights) on individual animals: • 1) Live weight • 2) Hot carcass weight • 3) Fat pad weight • 4) Hot breast muscle weight • 5) Hot bone in leg weight

Assay [2] has as its system male broilers. Description: Study 2: growth performance and carcass responses of male broilers, compounds in feed in the last 14 days prior to slaughter. The assay is classed as in vivo, chicken. The method, then:
Compounds 2, 5, and 9 are used in this study. The study is conducted to evaluate growth performance and carcass responses of male broilers by comparing non-zero dosages of the compounds, versus negative control, administered in the last 14 days prior to slaughter. Table 3 sets out the specific treatment groups.
The route of administration is oral, with the compounds mixed in feed, and provided Ad libitum. The age of the chickens of Day 1 of the study is 35 days old. Body weights are taken on the following days: • 1) Study Day 1 (pen weight) • 2) Study Day 15 (individual animal weights) • 3) Study Day 16 (individual weights on selected animals in animals in blocks 1-4) • 4) Study Day 17 (individual weights on selected animals in animals in blocks 5-8)
as §1

The mark [3] stands for this setting: male broilers 35 days old at Day 1, * in cell = not significant vs negative control, read-out: ADG % inc.
Where [4] appears, read: male broilers, * in cell = not significant, read-out: Hot carcass wt % inc.
The mark [5] stands for this setting: male broilers, * in cell = not significant.

For `CC(C)(Cc1ccc(Oc2ccc(C(=O)O)cc2)cc1)NC[C@H](O)COc1cccc(O)c1` (stereo in doubt) [Compound 8, 4-[4-(2-{[2-hydroxy-3-(3-hydroxyphenoxy)propyl]amino}-2-methylpropyl)phenoxy]benzoic acid dihydrochloride], the change in vivo at 15 ppm, 15 µg/mL in the assay with male broilers [1] (setting [3]) is -0.4%; with male broilers [1] (setting [4]), 0.8%.
As for `CC(C)(Cc1ccc(Oc2ncccc2C#N)cc1)NC[C@H](O)COc1ccccc1-c1cccs1` [Compound 1, 2-[4-(2-{[(2S)-2-hydroxy-3-(2-thiophen-2-ylphenoxy)propyl]amino}-2-methylpropyl)phenoxy]pyridine-3-carbonitrile, reference compound], in the assay with male broilers [1] (setting [5]), the “Ave daily live wt gain % inc.” value turned out to be 4.0%, the “Breast wt % inc.” value is reported as 3.5* %, the “Feed intake % inc.” value is on record as 2.7% and the “Gain effic % inc.” value is 1.6* %. Moreover, in the assay on male broilers [1] (setting [5]), the “Leg wt % inc.” value is 1.2* % and the “Fat Pad wt % dec.” value was 9.8* %. In addition, the “growth performance parameters improved (in words)” value in the assay on male broilers [1] (15 ppm in feed, vs negative control) is listed as “improved ADG, feed intake, average daily live weight gain only”. For the same compound, the change in vivo at 15 ppm, 15 µg/mL with male broilers [1] (setting [3]) was found to be 4.4%. Moreover, the change in vivo at 15 ppm, 15 µg/mL in the assay with male broilers [1] (setting [4]) was 2.4%.
As for `CC(C)(Cc1ccc(Oc2ccc(C(=O)N3CCOCC3)cn2)cc1)NC[C@H](O)COc1cccc2[nH]ncc12` [Compound 2, (2S)-1-{[1,1-dimethyl-2-(4-{[5-(morpholin-4-ylcarbonyl)pyridin-2-yl]oxy}phenyl)ethyl]amino}-3-(1H-indazol-4-yloxy)propan-2-ol], in the assay with male broilers [1] (setting [5]), the “Ave daily live wt gain % inc.” value is given as 8.3%, the “Breast wt % inc.” value is listed as 6.1%, the “Feed intake % inc.” value turned out to be 4.8% and the “Gain effic % inc.” value came to 3.8%. In addition, in the assay with male broilers [1] (setting [5]), the “Leg wt % inc.” value is given as 8.2% and the “Fat Pad wt % dec.” value is reported as 12.8* %. For the same compound, in the assay on male broilers [1] (15 ppm in feed), the “fat pad weight (in words)” value was “reduce fat pad weight”; the “feed intake (in words)” value is reported as “significant increase in feed intake”; the “gain versus untreated control (in words)” value is “significantly greater than untreated control”; the “improvement versus negative control and positive control (in words)” value was “significantly better improvement than both the negative control and the positive control”. Also, the change in vivo at 15 ppm, 15 µg/mL with male broilers [1] (setting [3]) was determined as 8.7%. Also, the change in vivo at 15 ppm, 15 µg/mL in the assay on male broilers [1] (setting [4]) turned out to be 6.1%. In the assay with male broilers [2] (3.5 ppm in feed), the “ADFI versus negative control group” value was “significantly lower”. In addition, in the assay on male broilers [2] (7 ppm in feed), the “F/G ratio (feed:gain efficiency) versus negative control group” value (“F/G ratio” below) is recorded as “significantly lower”, the “G/F ratio (gain:feed efficiency) versus negative control group” value (shortened to “G/F ratio”) is “significantly higher”, the “hot bone-in leg weight versus negative control group” value was “significantly higher” and the “hot breast muscle weight versus negative control group” value was “significantly higher”. In the assay on male broilers [2] (7 ppm in feed), the “hot carcass weight versus negative control group” value is listed as “significantly higher”.
Turning to `CC(C)(Cc1ccc(Oc2ccc(S(C)(=O)=O)cc2)cc1)NC[C@H](O)COc1cccc2[nH]c(=S)[nH]c12` [Compound 3, 4-({(2S)-3-[(1,1-dimethyl-2-{4-[4-(methylsulfonyl)phenoxy]phenyl}ethyl)amino]-2-hydroxypropyl}oxy)-1,3-dihydro-2H-benzimidazole-2-thione], the values for the change in vivo at 15 ppm, 15 µg/mL in the assay with male broilers [1] (setting [3]) and in the assay with male broilers [1] (setting [4]) were 1.6% and 2.7%, respectively.
Taken in the same sequence, the figures for `CC(C)(Cc1ccc(Oc2ncccc2C(N)=O)cc1)NC[C@H](O)COc1ccccc1-c1cc2ccccc2[nH]1` [Compound 4, 2-{4-[2-({(2S)-2-hydroxy-3-[2-(1H-indol-2-yl)phenoxy]propyl}amino)-2-methylpropyl]phenoxy}pyridine-3-carboxamide] were -1.6% and 0.3%.
Taken in the same sequence, the figures for `CC(C)(Cc1ccc(Oc2ccc(C(=O)N3CCOCC3)cn2)cc1)NC[C@H](O)COc1cccc2[nH]ccc12` [Compound 6, (2S)-1-{[1,1-dimethyl-2-(4-{[5-(morpholin-4-ylcarbonyl)pyridin-2-yl]oxy}phenyl)ethyl]amino}-3-(1H-indol-4-yloxy)propan-2-ol] were 3.9% and 3.8%.
For `CC(C)(Cc1ccc(Oc2ccc(S(C)(=O)=O)cc2S(C)(=O)=O)cc1)NC[C@H](O)COc1cccc2[nH]c(C(N)=O)cc12` [Compound 7, 4-({(2S)-3-[(2-{4-[2,4-bis(methylsulfonyl)phenoxy]phenyl}-1,1-dimethylethyl)amino]-2-hydroxypropyl}oxy)-1H-indole-2-carboxamide] the same measures were 2% and 1.2%.
As for `CC(C)(Cc1ccc(Oc2ncccc2C(N)=O)cc1)NC[C@H](O)COc1cccc2[nH]ncc12` [Compound 9, 2-[4-(2-{[(2S)-2-hydroxy-3-(1H-indazol-4-yloxy)propyl]amino}-2-methylpropyl)phenoxy]pyridine-3-carboxamide], in the assay on male broilers [1] (setting [5]), the “Ave daily live wt gain % inc.” value is reported as 9.3%, the “Breast wt % inc.” value came to 4.8%, the “Feed intake % inc.” value was 2.1* % and the “Gain effic % inc.” value was 6.7%. Also, in the assay with male broilers [1] (setting [5]), the “Leg wt % inc.” value worked out at 7.9% and the “Fat Pad wt % dec.” value was determined as 17.8%. Moreover, in the assay on male broilers [1] (15 ppm in feed), the “fat pad weight (in words)” value is reported as “reduce fat pad weight”, the “feed intake (in words)” value is reported as “significant increase in feed intake”, the “gain versus untreated control (in words)” value is “significantly greater than untreated control” and the “significance of the fat pad weight difference” value is reported as “significant”. Also, in the assay on male broilers [1] (15 ppm in feed), the “improvement versus negative control and positive control (in words)” value was “significantly better improvement than both the negative control and the positive control”. In addition, the change in vivo at 15 ppm, 15 µg/mL in the assay with male broilers [1] (setting [3]) was determined as 8.9%. For the same compound, the change in vivo at 15 ppm, 15 µg/mL in the assay with male broilers [1] (setting [4]) is 5%. Also, in the assay with male broilers [2] (3.5 ppm in feed), the “F/G ratio” value is recorded as “significantly lower”, the “G/F ratio” value was “significantly higher”, the “hot bone-in leg weight versus negative control group” value is listed as “significantly higher” and the “hot breast muscle weight versus negative control group” value was “significantly higher”. Further, the “hot carcass weight versus negative control group” value with male broilers [2] (3.5 ppm in feed) is “significantly higher”. Also, in the assay with male broilers [2] (7 ppm in feed), the “ADFI versus negative control group” value is “significantly higher”, the “ADG versus negative control group” value is reported as “significantly higher”, the “F/G ratio” value is “significantly lower” and the “G/F ratio” value was “significantly higher”. Besides, in the assay on male broilers [2] (7 ppm in feed), the “hot bone-in leg weight versus negative control group” value is on record as “significantly higher”, the “hot breast muscle weight versus negative control group” value is given as “significantly higher” and the “hot carcass weight versus negative control group” value is given as “significantly higher”.
